{
  "source": "patent US6896892B2",
  "about": "“Insecticide-impregnated fabric and method of production” (The United States of America as represented by the …, priority 2000, dated 2005)",
  "key": {"[1]": {"tested_on": "Anopheles gambiae mosquitoes (G3 strain)", "assay": "WHO cone bioassay of impregnated netting, knock-down and mortality, G3 strain", "format": "in vivo", "details": "nets 500 mg/m^2 permethrin alone; two wash/rinse cycles", "protocol": "(§1) Insectary-reared and sugar-fed Anopheles gambiae mosquitoes (Kisumu [KIS], G3 and Asembo [AB] strains), 3-4 days old, were tested for susceptibility (or resistance) to permethrin-impregnated nets, using the WHO adult mosquito susceptibility test kit. About 20 mosquitoes were used in each assay. Cohort mosquitoes were then used to bioassay the pyrethroid-impregnated netting samples using the WHO cone bioassay with a 3 minute exposure time. During an assay, the cone was held on its side, which placed the net sample in a perpendicular or vertical position with respect to the floor, as is the case when testing an actual hanging net. In each assay 7-12 mosquitoes were used with 3-4 such assays run for each experiment. After exposure for the prescribed time, mortality was determined after the mosquitoes were held overnight (24 hours) in clean cartons with sugar water for nourishment. Final mortality was corrected for control mortality. Knock-down was defined as the number of mosquitoes alive or dead, present on the floor of the carton 30 minutes after exposure. Knock-down is considered to be a more accurate measurement of insecticide efficacy because in the wild any mosquito that falls to the ground serves almost immediately as food for other insects (e.g., ants). Temperature and humidity conducive to the survival of the mosquitoes were maintained."}, "[2]": {"assay": "Wash/rinse cycles of netting samples, permethrin removed per cycle", "format": "physicochemical", "protocol": "Netting samples were repeatedly washed and each wash and rinse solution was analyzed to determine the concentration of impregnated insecticide removed during each wash cycle. After several wash/rinse cycles, when the insecticidal efficacy had become depleted, the residual insecticide on the net was also determined.\nA volume of 100 ml of a standardized detergent (2% aqueous sodium dodecyl sulfate [SDS]) was added to a 4 ounce wide mouth screw-cap bottle. An impregnated net sample (bioassayed beforehand) was folded twice and placed into the SDS solution, and the cap was applied and the bottle was shaken for 5 minutes on a mechanical shaker. After removing the cap, the net sample was removed, wrung out and placed in a 4 ounce bottle containing 100 ml of de-ionized water and shaken for five minutes, after which, the sample was removed, wrung out and left to dry overnight. The sample was rebioassayed the next day and at later times. To each wash solution was added a volume of 100 μl of the appropriate internal standard (IS) solution in acetone, and the contents were vigorously shaken by hand. To the rinse solution was added a 0.5 g quantity of dry SDS, and the contents were shaken to dissolve the SDS. Then a 100 μl volume of IS was added, and the contents were vigorously shaken. Two ml of each wash and rinse solution was then transferred to a 4 ml screw-cap vial, 3 ml of ethyl acetate were added and the contents were shaken. After centrifugation to clarify the ethyl acetate layer, about 1 ml of the ethyl acetate layer of each extract was transferred to an autosampler vial and injected onto the GC system described above to determine insecticide content.\nFor washing experiments involving permethrin, the wash and rinse solutions were injected directly onto a reversed-phase, high-performance liquid chromatographic system with ultraviolet (UV) detection, to determine the permethrin content of the solutions."}, "[3]": {"tested_on": "Anopheles gambiae mosquitoes (Kisumu [KIS], G3 and Asembo [AB] strains)", "assay": "WHO cone bioassay of impregnated netting, all strains", "format": "in vivo", "protocol": "as §1"}, "[4]": {"tested_on": "Anopheles gambiae mosquitoes (Asembo [AB] strain)", "assay": "WHO cone bioassay of impregnated netting, knock-down and mortality, AB strain", "format": "in vivo", "details": "nets 500 mg/m^2 permethrin alone; after one wash/rinse cycle", "protocol": "as §1"}, "[5]": {"tested_on": "Anopheles gambiae mosquitoes (Kisumu [KIS] strain)", "assay": "WHO cone bioassay of impregnated netting, knock-down and mortality, KIS strain", "format": "in vivo", "details": "nets 500 mg/m^2 permethrin alone; after five wash/rinse cycles", "protocol": "as §1"}},
  "note": "Entries after “also recorded” stand apart in the source; their conditions may differ.",
  "data": [
    {"compound": "CC1(C)C(C=C(Cl)Cl)C1C(=O)OCc1cccc(Oc2ccccc2)c1", "note": "(stereo not drawn) [Permethrin Alone, permethrin]", "values": [
      {"measurement": "knock-down", "setting": "[1]", "result": "approximately 20%"},
      {"measurement": "mortality", "setting": "[1]", "result": "~10", "unit": "%"},
      {"measurement": "insecticide lost after the first washing", "setting": "[2]; nets 500 or 1000 mg/m^2 permethrin alone", "result": "63-90%"},
      {"measurement": "Amt (%) washed off during a W/R cycle", "setting": "[2]; permethrin alone 500 mg/m^2, W/R = 1", "result": 63.0, "unit": "%"},
      {"measurement": "Amt (%) washed off during a W/R cycle", "setting": "[2]; permethrin alone 500 mg/m^2, W/R = 2", "result": 4.3, "unit": "%"},
      {"measurement": "Amt (%) washed off during a W/R cycle", "setting": "[2]; permethrin alone 500 mg/m^2, W/R = 3", "result": 4.7, "unit": "%"},
      {"measurement": "Amt (%) washed off during a W/R cycle", "setting": "[2]; permethrin alone 500 mg/m^2, W/R = 4", "result": 17.5, "unit": "%"},
      {"measurement": "Amt (%) washed off during a W/R cycle", "setting": "[2]; permethrin alone 500 mg/m^2, W/R = 5", "result": 7.6, "unit": "%"},
      {"measurement": "Amt (%) washed off during a W/R cycle", "setting": "[2]; permethrin alone 500 mg/m^2, W/R = 6", "result": 2.8, "unit": "%"},
      {"measurement": "Amt (%) washed off during a W/R cycle", "setting": "[2]; permethrin alone 1000 mg/m^2, W/R = 1", "result": 90.7, "unit": "%"},
      {"measurement": "Amt (%) washed off during a W/R cycle", "setting": "[2]; permethrin alone 1000 mg/m^2, W/R = 2", "result": 2.4, "unit": "%"},
      {"measurement": "Amt (%) washed off during a W/R cycle", "setting": "[2]; permethrin alone 1000 mg/m^2, W/R = 3", "result": 0.9, "unit": "%"},
      {"measurement": "Amt (%) washed off during a W/R cycle", "setting": "[2]; permethrin alone 1000 mg/m^2, W/R = 4", "result": 0.9, "unit": "%"},
      {"measurement": "effectiveness against all strains", "setting": "[3]; nets 500 mg/m^2 permethrin alone, six wash/rinse cycles", "result": "completely disappeared"},
      {"measurement": "effectiveness against all strains", "setting": "[3]; nets 1000 mg/m^2 permethrin alone, after four washings", "result": "lost most of their effectiveness"},
      {"measurement": "effectiveness (knock-down and mortality)", "setting": "[4]", "result": "completely ineffective; also recorded: all effectiveness with this strain was lost"},
      {"measurement": "knock-down", "setting": "[5]", "result": "less than 50%"},
      {"measurement": "mortality", "setting": "[5]", "result": "approximately 20%"}
    ]}
  ]
}
